Results as given in PubChem BioAssay (NCI).
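Assay format: 96-well plates, 48-hour exposure. The concentration for full growth arrest is given as TGI.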

Key:
Assay in all cases: NCI anticancer screen, dose series, 48 h
[1] = system: 786-0 renal
[2] = system: A498 renal
[3] = system: A549 NSCLC
[4] = system: ACHN renal
[5] = system: BT-549 breast
[6] = system: CAKI-1 renal
[7] = system: CCRF-CEM leukemia
[8] = system: COLO 205 colon
[9] = system: DU-145 prostate
[10] = system: EKVX NSCLC
[11] = system: HCC-2998 colon
[12] = system: HCT-116 colon
[13] = system: HCT-15 colon
[14] = system: HL-60(TB) leukemia
[15] = system: HOP-62 NSCLC
[16] = system: HOP-92 NSCLC
[17] = system: HS 578T breast
[18] = system: HT29 colon
[19] = system: IGROV1 ovarian
[20] = system: K-562 leukemia
[21] = system: KM12 colon
[22] = system: LOX IMVI melanoma
[23] = system: M14 melanoma
[24] = system: MALME-3M melanoma
[25] = system: MCF7 breast
[26] = system: MDA-MB-231 breast
[27] = system: MDA-MB-435
[28] = system: MDA-N
[29] = system: MOLT-4 leukemia
[30] = system: NCI-H226 lung
[31] = system: NCI-H23 lung
[32] = system: NCI-H460 lung
[33] = system: NCI-H522 lung
[34] = system: NCI/ADR-RES ovarian
[35] = system: OVCAR-3 ovarian
[36] = system: OVCAR-4 ovarian
[37] = system: OVCAR-5 ovarian
[38] = system: OVCAR-8 ovarian
[39] = system: PC-3 prostate
[40] = system: RPMI-8226 leukemia
[41] = system: RXF 393 renal
[42] = system: SF-268 CNS
[43] = system: SF-295 CNS
[44] = system: SF-539 CNS
[45] = system: SK-MEL-2 melanoma
[46] = system: SK-MEL-5 melanoma
[47] = system: SK-OV-3 ovarian
[48] = system: SN12C renal
[49] = system: SNB-19 CNS
[50] = system: SNB-75 CNS
[51] = system: SW-620 colon
[52] = system: T-47D breast
[53] = system: TK-10 renal
[54] = system: U251 CNS
[55] = system: UACC-257 melanoma
[56] = system: UACC-62 melanoma
[57] = system: UO-31 renal
[58] = system: SK-MEL-28 melanoma

Work on `COc1ccc2c(c1)C1Oc3ccccc3CC1CO2` (stereo not drawn) yielded a TGI [1] greater than 100 µM, a TGI [2] of 96.2 µM and a TGI [3] greater than 100 µM. The TGI [4] was greater than 100 µM, the TGI [5] was greater than 100 µM and the TGI [6] was greater than 100 µM. For the same compound, the TGI [7] was greater than 100 µM, the TGI [8] was greater than 100 µM and the TGI [9] was greater than 100 µM. For the same compound, the TGI [10] was greater than 100 µM, the TGI [11] was 42.7 µM and the TGI [12] was greater than 100 µM. The TGI [13] was greater than 100 µM, the TGI [14] was 50 µM and the TGI [15] was greater than 100 µM. For the same compound, the TGI [16] was 87 µM, the TGI [17] was greater than 100 µM and the TGI [18] was greater than 100 µM. It also gave a TGI [19] greater than 100 µM, a TGI [20] greater than 100 µM and a TGI [21] greater than 100 µM. For the same compound, the TGI [22] was greater than 100 µM, the TGI [23] was greater than 100 µM and the TGI [24] was greater than 100 µM. It also gave a TGI [25] greater than 100 µM, a TGI [26] greater than 100 µM and a TGI [27] greater than 100 µM. It also gave a TGI [28] greater than 100 µM, a TGI [29] of 52.9 µM and a TGI [30] greater than 100 µM. For the same compound, the TGI [31] was greater than 100 µM, the TGI [32] was greater than 100 µM and the TGI [33] was greater than 100 µM. For the same compound, the TGI [34] was greater than 100 µM, the TGI [35] was greater than 100 µM and the TGI [36] was greater than 100 µM. For the same compound, the TGI [37] was greater than 100 µM, the TGI [38] was greater than 100 µM and the TGI [39] was greater than 100 µM. It also gave a TGI [40] of 65.4 µM, a TGI [41] of 88.9 µM and a TGI [42] greater than 100 µM. It also gave a TGI [43] greater than 100 µM, a TGI [44] greater than 100 µM and a TGI [45] greater than 100 µM. For the same compound, the TGI [46] was greater than 100 µM, the TGI [47] was greater than 100 µM and the TGI [48] was greater than 100 µM. The TGI [49] was greater than 100 µM, the TGI [50] was 98.7 µM and the TGI [51] was greater than 100 µM. It also gave a TGI [52] greater than 100 µM, a TGI [53] greater than 100 µM and a TGI [54] greater than 100 µM. For the same compound, the TGI [55] was greater than 100 µM, the TGI [56] was greater than 100 µM and the TGI [57] was 75.8 µM.
With `CC1CCC2C(C(=O)O[C@H]3C4C=CO[C@@H](OC5OC(CO)C(O)C(O)C5O)C4[C@@]4(CO)O[C@@H]34)=CO[C@@H](OC3OC(CO)C(O)C(O)C3O)C12` (stereo partly drawn) the TGI [1] was greater than 10 µM, the TGI [2] was greater than 10 µM and the TGI [3] was greater than 10 µM. For the same compound, the TGI [4] was greater than 10 µM, the TGI [5] was greater than 10 µM and the TGI [6] was greater than 10 µM. The TGI [7] was greater than 10 µM, the TGI [8] was greater than 10 µM and the TGI [9] was greater than 10 µM. It also gave a TGI [10] greater than 10 µM, a TGI [11] greater than 10 µM and a TGI [12] greater than 10 µM. For the same compound, the TGI [13] was greater than 10 µM, the TGI [14] was greater than 10 µM and the TGI [15] was greater than 10 µM. For the same compound, the TGI [16] was greater than 10 µM, the TGI [17] was greater than 10 µM and the TGI [18] was greater than 10 µM. For the same compound, the TGI [19] was greater than 10 µM, the TGI [20] was greater than 10 µM and the TGI [21] was greater than 10 µM. It also gave a TGI [22] greater than 10 µM, a TGI [23] greater than 10 µM and a TGI [24] greater than 10 µM. The TGI [25] was greater than 10 µM, the TGI [26] was greater than 10 µM and the TGI [27] was greater than 10 µM. It also gave a TGI [28] greater than 10 µM, a TGI [29] greater than 10 µM and a TGI [30] greater than 10 µM. For the same compound, the TGI [31] was greater than 10 µM, the TGI [32] was greater than 10 µM and the TGI [33] was greater than 10 µM. It also gave a TGI [34] greater than 10 µM, a TGI [35] greater than 10 µM and a TGI [36] greater than 10 µM. For the same compound, the TGI [37] was greater than 10 µM, the TGI [38] was greater than 10 µM and the TGI [39] was greater than 10 µM. It also gave a TGI [40] greater than 10 µM, a TGI [41] greater than 10 µM and a TGI [42] greater than 10 µM. The TGI [43] was greater than 10 µM, the TGI [44] was greater than 10 µM and the TGI [45] was greater than 10 µM. It also gave a TGI [58] greater than 10 µM, a TGI [46] greater than 10 µM and a TGI [47] greater than 10 µM. The TGI [48] was greater than 10 µM, the TGI [49] was greater than 10 µM and the TGI [50] was greater than 10 µM. The TGI [51] was greater than 10 µM, the TGI [52] was greater than 10 µM and the TGI [53] was greater than 10 µM. The TGI [54] was greater than 10 µM, the TGI [55] was greater than 10 µM and the TGI [56] was greater than 10 µM. It also gave a TGI [57] greater than 10 µM.
With `COc1ccc(/C=C2\CC3C4CC=C5C[C@@H](N6CCCC6)CC[C@]5(C)C4CC[C@]3(C)[C@H]2O)cc1OC` (stereo partly drawn) the TGI [1] was 11.1 µM, the TGI [2] was 17 µM and the TGI [3] was 17.6 µM. For the same compound, the TGI [4] was 16 µM, the TGI [5] was 16.5 µM and the TGI [6] was 16.7 µM. The TGI [7] was 50 µM, the TGI [8] was 15.8 µM and the TGI [9] was 22.4 µM. For the same compound, the TGI [10] was 16.9 µM, the TGI [11] was 11.7 µM and the TGI [12] was 15.8 µM. The TGI [13] was 14.2 µM, the TGI [14] was 42.4 µM and the TGI [15] was 12.3 µM. The TGI [16] was 23.4 µM, the TGI [17] was 26.9 µM and the TGI [18] was 15.3 µM. For the same compound, the TGI [19] was 21.4 µM, the TGI [20] was 37.5 µM and the TGI [21] was 14.2 µM. The TGI [22] was 18.8 µM, the TGI [23] was 16.8 µM and the TGI [24] was 16.7 µM. The TGI [25] was 14.8 µM, the TGI [26] was 15.1 µM and the TGI [27] was 14.3 µM. For the same compound, the TGI [28] was 14.9 µM, the TGI [29] was 38.3 µM and the TGI [30] was 20.2 µM. For the same compound, the TGI [31] was 17.6 µM, the TGI [32] was 17.4 µM and the TGI [33] was 16 µM. It also gave a TGI [34] of 19.2 µM, a TGI [35] of 16.8 µM and a TGI [36] of 17.1 µM. It also gave a TGI [37] of 19 µM, a TGI [38] of 23.8 µM and a TGI [39] of 12.6 µM. The TGI [40] was 22.1 µM, the TGI [41] was 25.2 µM and the TGI [42] was 22.4 µM. It also gave a TGI [43] of 11.5 µM, a TGI [44] of 15.1 µM and a TGI [45] of 14.3 µM. The TGI [58] was 20.1 µM, the TGI [46] was 14.3 µM and the TGI [47] was 17.5 µM. The TGI [48] was 18.3 µM, the TGI [49] was 19.1 µM and the TGI [50] was 22.9 µM. The TGI [51] was 50 µM, the TGI [52] was 26.6 µM and the TGI [53] was 19.9 µM. It also gave a TGI [54] of 15.8 µM, a TGI [55] of 15.4 µM and a TGI [56] of 16 µM. It also gave a TGI [57] of 18.5 µM.
